For assay [1], the system named is HCT116 (human colon cancer) tumor. The assay is described as follows: HCT116 xenograft assay, intraperitoneal administration. The format is in vivo, athymic nu/nu mice. Particulars: for inhibition of tumor growth compared to vehicle: 100 mg/Kg intraperitoneal once/day for 11 days, measured 13 days after start; for activity in HCT116 xenograft assay: intraperitoneal once/day for 11 days. As to the method: Male athymic nu/nu mice, 6-8 weeks old (approximately 20 g), were implanted subcutaneously in the right fore flank with 20-30 mg pieces of HCT116 (human colon cancer) tumor harvested from similar mice that had previously been implanted with the HCT116 tumor. Approximately 7-10 days after tumor transplantation, when the tumor weight was approximately 50-200 mg, the mice were assigned to treatment groups. Groups of mice were treated with compounds 5A or 13A at 100 mg/Kg, or compound 70A at 150 mg/Kg, by intraperitoneal injection once/day for 11 days, with vehicle control. Tumor growth inhibition was measured 13 days after the start of treatment.

The test system of assay [2] is LNCap (prostate carcinoma). Kind of assay: Cytotoxicity/growth inhibition assay, LNCap. It counts as cell-based, human. Particulars: read-out: IC50 (LNCap). The procedure, abridged: (§1)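 Test compounds in DMSO (0.1–200 μM; final DMSO 0.5%) added to freshly diluted cells (3×10^3 cells/mL MX-1 and DLD-1, 6×10^3 cells/mL LNCap), triplicate wells. Cultured ~three doubling times (3 days MX-1, 4 days DLD-1/LNCap). CellTiter-Glo luminescence, 15 min room temperature; growth expressed as % of DMSO solvent control.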

Assay [3] concerns MX-1 (human breast cancer) tumor. The assay is described as follows: MX-1 xenograft assay, intraperitoneal administration. The format is in vivo, athymic nu/nu mice. Particulars: for activity in MX-1 xenograft assay / tumor growth inhibition compared to vehicle: 100 mg/Kg intraperitoneal once/day for 5, 9, or 14 days. As to the method:
(§2) Female athymic nu/nu mice (Harlan, Indianapolis, Ind., U.S.A. or similar vendor), 6-8 weeks old (approximately 20 g), were implanted in the mammary fat pad of the right fore flank with 20-30 mg pieces of MX-1 (human breast cancer) tumor harvested from similar mice that had previously been implanted with the MX-1 tumor. Approximately 7-10 days after tumor transplantation, when the tumor weight was approximately 50-200 mg, the mice were assigned to treatment groups. […] All compounds were active in this assay, with tumor growth inhibition compared to vehicle between 5% (compound 171A) and 99% (compound 13A), with most compounds causing at least 30% tumor growth inhibition. […] Compound 13A was tested at 25, 50, or 100 mg/Kg for 5 or 9 days, causing tumor inhibition between 19% (25 mg/Kg for 5 days) and 99% (100 mg/Kg for 9 days). Compound 70A was tested at 50, 100, and 150 mg/Kg for 5 or 12 days, causing tumor inhibition between 16% (50 mg/Kg for 5 days) and 95% (150 mg/Kg for 12 days).

The subject of a further assay is MX-1 (breast carcinoma). Kind of assay: Cytotoxicity/growth inhibition assay, MX-1. The format is cell-based, human. The conditions noted are these: read-out: IC50 (MX-1). The procedure, abridged:
as §1

In assay [4] the test system is DLD-1 (colorectal adenocarcinoma). Kind of assay: Cytotoxicity/growth inhibition assay, DLD-1. The format is cell-based, human. Particulars: read-out: IC50 (DLD-1). The procedure, abridged:
as §1

In assay [5] the test system is MX-1 (human breast cancer) tumor. Kind of assay: MX-1 xenograft assay, oral administration. It counts as in vivo, athymic nu/nu mice. Here is the method:
as §2
A study similar to that described in In vivo Example 1 was performed using oral administration of compounds 13A and 70A. Groups of mice were treated with compound 13A at 50, 100, or 300 mg/Kg, or compound 70A at 100, 150, 200, or 250 mg/Kg, by gavage once/day for 5 days (with vehicle control). Tumor growth inhibition was measured 13 days after the start of treatment.

For assay [6], the system named is MiaPaCa-2 (human pancreatic cancer) tumor. Kind of assay: MiaPaCa-2 xenograft assay, oral administration. The format is in vivo, athymic nu/nu mice. Particulars: 200 mg/Kg for 7 days.
Assay [7] shares this test system. Kind of assay: MiaPaCa-2 xenograft assay, intraperitoneal administration. Particulars: 100 mg/Kg intraperitoneal once/day for 14 days. The format is in vivo, athymic nu/nu mice. As to the method: Male athymic nu/nu mice, 6-8 weeks old (approximately 20 g), were implanted subcutaneously in the right fore flank with 20-30 mg pieces of MiaPaCa-2 (human pancreatic cancer) tumor harvested from similar mice that had previously been implanted with the MiaPaCa-2 tumor. Approximately 7-10 days after tumor transplantation, when the tumor weight was approximately 50-200 mg, the mice were assigned to treatment groups. Groups of mice were treated with compound 13A or 70A at 100 mg/Kg by intraperitoneal injection once/day for 14 days, with vehicle control. Tumor growth inhibition was measured 15 days after the start of treatment.

The mark [8] stands for this setting: LNCap cells, 4 days culture, CellTiter-Glo, 0.1-200 μM tested.
Where [9] appears, read: MX-1 cells, 3 days culture, CellTiter-Glo, 0.1-200 μM tested.
The mark [10] stands for this setting: DLD-1 cells, 4 days culture, CellTiter-Glo, 0.1-200 μM tested.

Where two headings read alike, the source gives them in different places.

For orientation: IC50 means the concentration that gives 50% inhibition.

Consider `CCCCS(=O)(=O)CCOP(=O)(N(CCCl)CCCl)N(CCCl)CCCl` [Compound 5A], for which the “inhibition of tumor growth compared to vehicle” value in assay [1] is 10%. Also, the “activity in HCT116 xenograft assay” value in assay [1] is “active”. The IC50 in assay [2] (setting [8]) turned out to be 42.8 µM; in the assay with MX-1 (breast carcinoma) (setting [9]) it was 14.3 µM; in assay [4] (setting [10]), 6.6 µM. In assay [3], the “activity in MX-1 xenograft assay” value was “active”.
As to `CNC(=O)CS(=O)(=O)CCOP(=O)(N(CCCl)CCCl)N(CCCl)CCCl` [Compound 13A, N-methyl-2-[[2-[[bis[bis(2-chloroethyl)amino]phosphinyl]oxy]ethyl]sulfonyl]acetamide], the “inhibition of tumor growth compared to vehicle” value in assay [5] (50 mg/Kg gavage once/day for 5 days, measured 13 days after start) worked out at 63%; in assay [5] (300 mg/Kg gavage once/day for 5 days, measured 13 days after start) it was 100%; in assay [1], 43%; in assay [7] (measured 15 days after start) it was 78%. In addition, the “activity in MX-1 xenograft assay, oral” value in assay [5] (gavage once/day for 5 days) was “active”. In addition, the “dose dependence of tumor inhibition, oral” value in assay [5] (gavage once/day for 5 days, measured 13 days after start) is recorded as “dose-dependent tumor inhibition”. For the same compound, the “activity in HCT116 xenograft assay” value in assay [1] is “active”. Also, the “activity in MiaPaCa-2 xenograft assay, oral” value in assay [6] is on record as “active”. Besides, in assay [6], the “inhibition of tumor growth” value was 82%. The half-maximal inhibitory concentration (IC50) in assay [2] (Homo sapiens, LNCaP, 96 h) was 53.5 µM; in the assay with MX-1 (breast carcinoma) (Homo sapiens, MX1, 72 h) it was 11.7 µM; in assay [4] (Homo sapiens, DLD-1, 96 h), 7.1 µM. Moreover, the “activity in MX-1 xenograft assay” value in assay [3] is “active”. Besides, the “tumor growth inhibition compared to vehicle” value in assay [3] is 99%. Moreover, the tumor inhibition in assay [3] (intraperitoneal, 25 mg/Kg for 5 days) was found to be 19%; in assay [3] (intraperitoneal, 100 mg/Kg for 9 days), 99%. The “dose dependence of tumor inhibition” value in assay [3] (intraperitoneal, range of doses and treatment times) is listed as “dose-dependent tumor inhibition”. Also, the “activity in MiaPaCa-2 xenograft assay” value in assay [7] is given as “active”.
In the case of `O=C(CS(=O)(=O)CCOP(=O)(N(CCCl)CCCl)N(CCCl)CCCl)N[C@@H](Cc1ccccc1)C(=O)O` [Compound 15A, N-{2-[[2-[[bis[bis(2-chloroethyl)amino]phosphinyl]oxy]ethyl]sulfonyl]acetyl}-L-phenylalanine], the half-inhibitory concentration (IC50) was no less than 200 µM in assay [2] (Homo sapiens, LNCaP, 96 h); 23.6 µM with MX-1 (breast carcinoma) (Homo sapiens, MX1, 72 h); 13.7 µM in assay [4] (Homo sapiens, DLD-1, 96 h). Further, the “activity in MX-1 xenograft assay” value in assay [3] was “active”.
With `O=C(CS(=O)(=O)CCOP(=O)(N(CCCl)CCCl)N(CCCl)CCCl)NCCN1CCOCC1` [Compound 23A], the 50% inhibitory concentration (IC50) is 47.5 µM in assay [2] (setting [8]), 25.9 µM in the assay with MX-1 (breast carcinoma) (setting [9]) and 6.6 µM in assay [4] (setting [10]). Besides, in assay [3], the “activity in MX-1 xenograft assay” value was “active”.
Take `O=C(c1ccco1)C1CCN(C(=O)c2ccc(CS(=O)(=O)CCOP(=O)(N(CCCl)CCCl)N(CCCl)CCCl)cc2)CC1` [Compound 171A]: the figures for the IC50 (in assay [2] (setting [8]); with MX-1 (breast carcinoma) (setting [9]); in assay [4] (setting [10])) were 27.7 µM, 6.1 µM and 6.1 µM, respectively. For the same compound, the “activity in MX-1 xenograft assay” value in assay [3] is recorded as “active”. Moreover, the “tumor growth inhibition compared to vehicle” value in assay [3] stood at 5%.
`CCOC(=O)CNC(=O)c1ccc(CS(=O)(=O)CCOP(=O)(N(CCCl)CCCl)N(CCCl)CCCl)cc1` [Compound 172A, α-[[2-[[bis[bis(2-chloroethyl)amino]phosphinyl]oxy]ethyl]sulfonyl]-4-[(ethoxycarbonylmethyl)-aminocarbonyl]toluene]: the half-maximal inhibitory concentration (IC50) in assay [2] (Homo sapiens, LNCaP, 96 h) is 31.6 µM; in the assay on MX-1 (breast carcinoma) (Homo sapiens, MX1, 72 h), 4.8 µM; in assay [4] (Homo sapiens, DLD-1, 96 h), 6.1 µM. In assay [3], the “activity in MX-1 xenograft assay” value is “active”.
Take `O=C(c1ccc(CS(=O)(=O)CCOP(=O)(N(CCCl)CCCl)N(CCCl)CCCl)cc1)N1CCN(Cc2ccccc2)CC1` [Compound 177A]: the results for the IC50 (in assay [2] (setting [8]); in the assay on MX-1 (breast carcinoma) (setting [9]); in assay [4] (setting [10])) were 21.1 µM, 8.8 µM and 4.5 µM, respectively.
Consider `O=P(OCCS(=O)(=O)Cc1ccco1)(N(CCCl)CCCl)N(CCCl)CCCl` [Compound 179A], for which the IC50 turned out to be 25.6 µM in assay [2] (setting [8]), 7.2 µM in the assay on MX-1 (breast carcinoma) (setting [9]) and 7.6 µM in assay [4] (setting [10]).
On to `O=P(OCCS(=O)(=O)Cc1cccs1)(N(CCCl)CCCl)N(CCCl)CCCl` [Compound 180A], for which the IC50 was 16.8 µM in assay [2] (setting [8]), 9.3 µM in the assay on MX-1 (breast carcinoma) (setting [9]) and 4.9 µM in assay [4] (setting [10]). In addition, the “activity in MX-1 xenograft assay” value in assay [3] is given as “active”.
Turning to `O=P(OCCS(=O)(=O)Cc1ccccn1)(N(CCCl)CCCl)N(CCCl)CCCl` [Compound 181A], the results for the IC50 (in assay [2] (setting [8]); with MX-1 (breast carcinoma) (setting [9]); in assay [4] (setting [10])) were 26.4 µM, 8.4 µM and 7.4 µM, respectively.
As for `O=P(OCCS(=O)(=O)Cc1cccc[n+]1[O-])(N(CCCl)CCCl)N(CCCl)CCCl` [Compound 182A], the figures for the IC50 (in assay [2] (setting [8]); with MX-1 (breast carcinoma) (setting [9]); in assay [4] (setting [10])) were 22.3 µM, 8 µM and 7.1 µM, respectively.
Consider `Cc1ncc(CS(=O)(=O)CCOP(=O)(N(CCCl)CCCl)N(CCCl)CCCl)c(CO)c1O` [Compound 183A], for which the IC50 in assay [2] (setting [8]) is 42.1 µM; in the assay on MX-1 (breast carcinoma) (setting [9]), 18.4 µM; in assay [4] (setting [10]) it was 4.9 µM.
Take `Cc1c(O)c(CO)c(CS(=O)(=O)CCOP(=O)(N(CCCl)CCCl)N(CCCl)CCCl)c[n+]1[O-]` [Compound 184A]: the half-maximal inhibitory concentration (IC50) is 94.8 µM in assay [2] (setting [8]), 28.9 µM in the assay with MX-1 (breast carcinoma) (setting [9]) and 5.3 µM in assay [4] (setting [10]).

The record behind these values is patent US8093231B2, “Sulfonylethyl phosphorodiamidates” (Telik, Inc., priority 2004, dated 2012).
